Measured values from ChEMBL document CHEMBL5143628, “Enteroviral replication inhibition by N-Alkyl triazolopyrimidinone derivatives through a non-capsid binding mode” (Bioorg Med Chem Lett, 2022).

Experiments:
[1] = Cytotoxicity against human H1-HeLa cells transfected with Enterovirus A71 replicon RNAs assessed as reduction in cell viability by CellTiter-Glo luminescent cell viability assay; type: toxicity, cell-based
[2] = Cytotoxicity against human H1-HeLa cells assessed as reduction in cell viability by MTT assay; type: toxicity, cell-based; details: H1-HeLa cells
Coxsackievirus B1 = test: Antiviral activity against Human coxsackievirus B1 infected in human H1-HeLa cells assessed as reduction in virus induced cytopathic effect incubated for 2 days by MTT assay; type: functional, organism-based; details: Enterovirus B, 48 h
[3] = Selectivity index, ratio of CC50 for cytotoxicity against human H1-HeLa cells to EC50 for antiviral activity against Human rhinovirus B14 infected in human H1-HeLa cells; type: toxicity, cell-based
CYP2C19 = CYP2C19 (Homo sapiens, UniProt P33261); test: Inhibition of human CYP2C19 at 10 uM incubated for 20 mins in presence of NADPH regenerating system by luminescence assay relative to control; type: ADME
CYP2C19, sequence (P33261 whole entry): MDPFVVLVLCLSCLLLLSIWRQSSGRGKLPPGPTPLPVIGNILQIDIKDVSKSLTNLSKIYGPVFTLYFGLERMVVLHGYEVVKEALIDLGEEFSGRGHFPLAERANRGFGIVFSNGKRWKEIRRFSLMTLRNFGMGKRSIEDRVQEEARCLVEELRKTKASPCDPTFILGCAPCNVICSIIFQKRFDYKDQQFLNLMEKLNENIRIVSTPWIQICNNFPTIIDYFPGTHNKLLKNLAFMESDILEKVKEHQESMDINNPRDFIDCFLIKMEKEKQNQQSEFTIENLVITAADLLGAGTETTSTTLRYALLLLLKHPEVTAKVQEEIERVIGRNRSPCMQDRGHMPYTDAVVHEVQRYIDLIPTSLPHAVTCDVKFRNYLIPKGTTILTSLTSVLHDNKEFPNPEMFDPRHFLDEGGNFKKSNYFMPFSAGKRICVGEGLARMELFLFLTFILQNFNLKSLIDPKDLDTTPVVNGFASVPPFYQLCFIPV

[4] = AUClast in Sprague-Dawley rat at 10 mg/kg, po by LC/MS/MS analysis; type: ADME, organism-based; parameters: time 0 - last, dose 10 mg/kg, route po; details: in vivo
rhinovirus B14 = test: Antiviral activity against Human rhinovirus B14 infected in human H1-HeLa cells assessed as reduction in virus induced cytopathic effect incubated for 3 days by MTT assay; type: functional, organism-based; details: h1-hela
Rhinovirus B [5] = test: Antiviral activity against Rhinovirus B91 infected in human H1-HeLa cells assessed as reduction in virus induced cytopathic effect incubated for 3 days by MTT assay; type: functional, organism-based; details: Rhinovirus B, 91, H1-HeLa, 72 h
[6] = Tmax in Sprague-Dawley rat at 10 mg/kg, po by LC/MS/MS analysis; type: ADME, organism-based; details: in vivo
CYP2D6 = CYP2D6 (Homo sapiens, UniProt P10635); test: Inhibition of human CYP2D6 at 10 uM incubated for 20 mins in presence of NADPH regenerating system by luminescence assay relative to control; type: ADME
CYP2D6, sequence (P10635 whole entry): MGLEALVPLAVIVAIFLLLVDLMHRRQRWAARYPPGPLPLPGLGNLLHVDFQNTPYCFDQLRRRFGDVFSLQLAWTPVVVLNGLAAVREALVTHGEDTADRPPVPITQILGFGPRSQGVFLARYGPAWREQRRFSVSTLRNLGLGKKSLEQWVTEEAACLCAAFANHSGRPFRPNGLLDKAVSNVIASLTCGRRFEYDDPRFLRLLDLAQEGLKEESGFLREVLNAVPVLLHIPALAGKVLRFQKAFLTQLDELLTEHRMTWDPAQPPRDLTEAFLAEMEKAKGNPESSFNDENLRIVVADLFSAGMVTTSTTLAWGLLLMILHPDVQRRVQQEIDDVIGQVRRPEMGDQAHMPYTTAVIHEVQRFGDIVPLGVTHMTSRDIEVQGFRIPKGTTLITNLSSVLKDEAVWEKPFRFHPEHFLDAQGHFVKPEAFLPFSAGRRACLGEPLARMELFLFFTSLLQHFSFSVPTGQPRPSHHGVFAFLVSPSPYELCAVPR

[7] = AUCinfinity in Sprague-Dawley rat at 10 mg/kg, po by LC/MS/MS analysis; type: ADME, organism-based; parameters: time infinity, dose 10 mg/kg, route po; details: in vivo
rhinovirus B86 = test: Antiviral activity against Human rhinovirus 86 infected in human H1-HeLa cells assessed as reduction in virus induced cytopathic effect incubated for 3 days by MTT assay; type: functional, organism-based; details: Rhinovirus B, 72 h
CYP1A2 = target: T1, CYP1A2 (Homo sapiens, UniProt P05177); test: Inhibition of human CYP1A2 at 10 uM incubated for 20 mins in presence of NADPH regenerating system by luminescence assay relative to control; type: ADME
T1 sequence (P05177 whole entry): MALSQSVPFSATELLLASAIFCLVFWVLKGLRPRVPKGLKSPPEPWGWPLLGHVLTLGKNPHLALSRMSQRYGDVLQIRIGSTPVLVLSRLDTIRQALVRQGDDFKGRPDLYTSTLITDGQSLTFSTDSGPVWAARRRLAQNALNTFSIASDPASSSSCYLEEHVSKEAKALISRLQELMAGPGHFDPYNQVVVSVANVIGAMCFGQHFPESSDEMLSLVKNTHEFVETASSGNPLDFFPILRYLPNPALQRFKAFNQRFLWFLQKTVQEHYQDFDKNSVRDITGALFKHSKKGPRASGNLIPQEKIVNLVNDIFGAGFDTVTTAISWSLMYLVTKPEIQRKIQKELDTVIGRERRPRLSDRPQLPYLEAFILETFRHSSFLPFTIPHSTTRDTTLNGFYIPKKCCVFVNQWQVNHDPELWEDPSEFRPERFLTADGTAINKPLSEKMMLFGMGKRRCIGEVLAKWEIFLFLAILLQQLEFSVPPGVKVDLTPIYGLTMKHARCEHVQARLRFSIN

[8] = Selectivity index, ratio of CC50 for cytotoxicity against human H1-HeLa cells to EC50 for antiviral activity against Human rhinovirus A21 infected in human H1-HeLa cells; type: toxicity, cell-based
Poliovirus 3 = test: Antiviral activity against Human poliovirus 3 infected in human H1-HeLa cells assessed as reduction in virus induced cytopathic effect incubated for 2 days by MTT assay; type: functional, organism-based; details: Enterovirus C, 48 h
[9] = Antiviral activity against Human rhinovirus 42 infected in human H1-HeLa cells assessed as reduction in virus induced cytopathic effect incubated for 3 days by MTT assay; type: functional, cell-based; details: Rhinovirus B, 72 h
[10] = Metabolic stability in pooled human liver microsomes at 1 uM incubated for 30 mins in presence of NADPH regenerating system by LC/MS/MS analysis; type: ADME, Microsome; details: 0.5 h
[11] = Inhibition of Enterovirus A71 replicon RNA transfected in human H1-HeLa cells assessed as reduction in replication measured after 8 hrs by One-Glo luciferase assay; type: cell-based; details: Enterovirus A
rhinovirus A21 = test: Antiviral activity against Human rhinovirus A21 infected in human H1-HeLa cells assessed as reduction in virus induced cytopathic effect incubated for 3 days by MTT assay; type: functional, organism-based; details: h1-hela
rhinovirus A1B = test: Antiviral activity against Rhinovirus A1B infected in human H1-HeLa cells assessed as reduction in virus induced cytopathic effect incubated for 3 days by MTT assay; type: functional, organism-based; details: Rhinovirus A, 72 h
[12] = Half life in Sprague-Dawley rat at 10 mg/kg, po by LC/MS/MS analysis; type: ADME, organism-based; details: in vivo
[13] = Antiviral activity against Human rhinovirus A71 infected in human H1-HeLa cells assessed as reduction in virus induced cytopathic effect incubated for 3 days by MTT assay; type: functional, cell-based; details: Rhinovirus A, H1-HeLa, 72 h
CYP3A4 = CYP3A4 (Homo sapiens, UniProt P08684); test: Inhibition of human CYP3A4 at 10 uM incubated for 20 mins in presence of NADPH regenerating system by luminescence assay relative to control; type: ADME
CYP3A4, sequence (P08684 whole entry): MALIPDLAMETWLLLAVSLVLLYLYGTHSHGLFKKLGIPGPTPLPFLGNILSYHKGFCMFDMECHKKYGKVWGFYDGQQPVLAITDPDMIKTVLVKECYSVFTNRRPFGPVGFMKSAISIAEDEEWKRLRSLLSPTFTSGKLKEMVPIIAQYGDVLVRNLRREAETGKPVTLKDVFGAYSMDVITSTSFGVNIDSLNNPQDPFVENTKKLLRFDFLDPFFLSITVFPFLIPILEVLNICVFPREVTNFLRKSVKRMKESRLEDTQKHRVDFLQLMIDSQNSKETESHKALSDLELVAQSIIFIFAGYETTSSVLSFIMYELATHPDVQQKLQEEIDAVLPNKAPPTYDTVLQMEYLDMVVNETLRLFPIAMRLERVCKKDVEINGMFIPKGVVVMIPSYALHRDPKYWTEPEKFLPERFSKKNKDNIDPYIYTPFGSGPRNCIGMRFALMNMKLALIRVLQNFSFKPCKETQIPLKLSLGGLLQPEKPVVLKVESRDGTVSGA

CYP2C9 = CYP2C9 (Homo sapiens, UniProt P11712); test: Inhibition of human CYP2C9 at 10 uM incubated for 20 mins in presence of NADPH regenerating system by luminescence assay relative to control; type: ADME
CYP2C9, sequence (P11712 whole entry): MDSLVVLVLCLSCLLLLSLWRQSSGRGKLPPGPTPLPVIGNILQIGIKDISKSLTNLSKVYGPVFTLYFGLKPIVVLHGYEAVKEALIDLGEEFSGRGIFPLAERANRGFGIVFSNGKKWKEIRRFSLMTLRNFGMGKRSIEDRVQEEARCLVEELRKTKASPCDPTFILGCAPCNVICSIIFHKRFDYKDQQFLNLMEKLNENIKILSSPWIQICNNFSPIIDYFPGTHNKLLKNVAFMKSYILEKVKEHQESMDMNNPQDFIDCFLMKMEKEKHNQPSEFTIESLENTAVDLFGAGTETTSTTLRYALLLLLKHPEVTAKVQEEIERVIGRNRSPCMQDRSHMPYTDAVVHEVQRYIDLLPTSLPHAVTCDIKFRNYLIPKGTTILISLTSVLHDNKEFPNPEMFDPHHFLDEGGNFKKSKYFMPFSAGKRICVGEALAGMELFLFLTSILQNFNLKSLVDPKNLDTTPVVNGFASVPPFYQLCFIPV

[14] = Cmax in Sprague-Dawley rat at 10 mg/kg, po by LC/MS/MS analysis; type: ADME, organism-based; parameters: dose 10 mg/kg, route po; details: in vivo
[15] = Selectivity index, ratio of CC50 for cytotoxicity against human H1-HeLa cells to EC50 for antiviral activity against Human rhinovirus A71 infected in human H1-HeLa cells; type: toxicity, cell-based; details: H1-HeLa cells, read-out: Ratio CC50/EC50
Rhinovirus A [16] = test: Antiviral activity against Rhinovirus A33 infected in human H1-HeLa cells assessed as reduction in virus induced cytopathic effect incubated for 3 days by MTT assay; type: functional, cell-based; details: Rhinovirus A, 33, H1-HeLa, 72 h
[17] = Metabolic stability in pooled rat liver microsomes at 1 uM incubated for 30 mins in presence of NADPH regenerating system by LC/MS/MS analysis; type: ADME, Microsome; details: 0.5 h
Rhinovirus A [18] = test: Antiviral activity against Rhinovirus A98 infected in human H1-HeLa cells assessed as reduction in virus induced cytopathic effect incubated for 3 days by MTT assay; type: functional, cell-based; details: Rhinovirus A, 98, H1-HeLa, 72 h
rhinovirus A2 = test: Antiviral activity against Human rhinovirus 2 infected in human H1-HeLa cells assessed as reduction in virus induced cytopathic effect incubated for 3 days by MTT assay; type: functional, organism-based; details: Rhinovirus A, 72 h
Rhinovirus B [19] = test: Antiviral activity against Rhinovirus B27 infected in human H1-HeLa cells assessed as reduction in virus induced cytopathic effect incubated for 3 days by MTT assay; type: functional, organism-based; details: Rhinovirus B, 27, H1-HeLa, 72 h
rhinovirus A16 = test: Antiviral activity against Human rhinovirus 16 infected in human H1-HeLa cells assessed as reduction in virus induced cytopathic effect incubated for 3 days by MTT assay; type: functional, organism-based; details: Rhinovirus A, 72 h

## CCCn1c(=O)c2c3c(sc2n2cnnc12)CC(C(C)(C)C)CC3 (stereo in doubt)
[1]
  CC50: > 30000 nM
[2]
  CC50: 77100 nM
Coxsackievirus B1
  EC50: 19800 nM
[3]
  Ratio CC50/EC50: 37.2
CYP2C19
  inhibition at 20 min, 10 µM: 7.19%
[4]
  AUC(0-t): 180 ng·h/mL
Rhinovirus B14
  EC50: 1800 nM
Rhinovirus B [5]
  EC50: 1700 nM
[6]
  Tmax: 3.5 h
CYP2D6
  inhibition at 20 min, 10 µM: 1.26%
[7]
  AUC(0-inf): 200 ng·h/mL
Rhinovirus B86
  EC50: 1500 nM
CYP1A2
  inhibition at 20 min, 10 µM: 7.46%
[8]
  Ratio CC50/EC50: 42.2
Poliovirus 3
  EC50: 1670 nM
[9]
  EC50: 1600 nM
[10]
  Stability: Stable
[11]
  IC50: 1700 nM
Rhinovirus A21
  EC50: 2000 nM
Rhinovirus A1B
  EC50: 1900 nM
[12]
  half-life: 8.89 h
[13]
  EC50: 1600 nM
CYP3A4
  inhibition at 20 min, 10 µM: 3.24%
CYP2C9
  inhibition at 20 min, 10 µM: 11.9%
[14]
  Cmax: 20 ng/mL
[15]
  selectivity ratio: 33.2
Rhinovirus A [16]
  EC50: 1500 nM
[17]
  Stability: Stable
Rhinovirus A [18]
  EC50: 1900 nM
Rhinovirus A2
  EC50: 1900 nM
Rhinovirus B [19]
  EC50: 1600 nM
Rhinovirus A16
  EC50: 1900 nM
